Test results published in BindingDB's records for doi:10.1016/j.chembiol.2016.11.011 (McMaster University, 2017).
pKi: −log10 of the molar value.

Molecular target: 2''-aminoglycoside nucleotidyltransferase (Pseudomonas aeruginosa (g-Proteobacteria))
Test: In Vitro ANT(2")-Ia Pyrophosphatase Assay
Protocol: In vitro ANT(2")-Ia pyrophosphatase assays were performed as described previously (Cox et al., 2015; Hirsch et al., 2014), with minor modifications. To improve compound solubility, Tween 20 was added to a final concentration of 0.01% (v/v) and compounds were added at a final concentration of 2% (v/v) DMSO. The enzyme ([…] reaction volume) was incubated with compound for 10 min at 25 °C, prior to initiation of the reaction with nucleotide. All inhibitory assays were performed with kanamycin B kept at Km (Cox et al., 2015; Hirsch et al., 2014).

pKi	Structure (SMILES)
4.89	[O-][S+]1CCN(Cc2ccc(-c3ccc4ncnc(Nc5ccc(OCc6ccccc6)c(Cl)c5)c4c3)o2)CC1 [(4-benzyloxy-3-chloro-phenyl)-{6-[5-(1-oxo-1lambda*4*-thiomorpholin-4-ylmethyl)-furan-2-yl]-quinazolin-4-yl}-amine]
4.22	CS(=O)(=O)CCNCc1ccc(-c2ccc3ncnc(Nc4ccc(OCc5ccccc5)c(Cl)c4)c3c2)o1
